# In ChEMBL document CHEMBL3792292, “Development of a potent and selective FLT3 kinase inhibitor by systematic expansion of a non-selective fragment-screening hit” (Bioorg Med Chem Lett, 2016):
# Calls of active or inactive are those of the source. No cut-off for these calls is given here.
# Assays:
# [1] = molecular target: T1, Serine/threonine-protein kinase Sgk1 (Homo sapiens) (UniProt O00141); test: Inhibition of human N-terminal GST-tagged SGK (61 to 431 residues) expressed in baculovirus expression system coexpressing His-tagged PDK1 (1 to 556 residues) using fluorescence labelled SGKtide as substrate at 50 times IC50 by electrophoretic mobility shift assay relative to control
# T1 sequence (whole entry): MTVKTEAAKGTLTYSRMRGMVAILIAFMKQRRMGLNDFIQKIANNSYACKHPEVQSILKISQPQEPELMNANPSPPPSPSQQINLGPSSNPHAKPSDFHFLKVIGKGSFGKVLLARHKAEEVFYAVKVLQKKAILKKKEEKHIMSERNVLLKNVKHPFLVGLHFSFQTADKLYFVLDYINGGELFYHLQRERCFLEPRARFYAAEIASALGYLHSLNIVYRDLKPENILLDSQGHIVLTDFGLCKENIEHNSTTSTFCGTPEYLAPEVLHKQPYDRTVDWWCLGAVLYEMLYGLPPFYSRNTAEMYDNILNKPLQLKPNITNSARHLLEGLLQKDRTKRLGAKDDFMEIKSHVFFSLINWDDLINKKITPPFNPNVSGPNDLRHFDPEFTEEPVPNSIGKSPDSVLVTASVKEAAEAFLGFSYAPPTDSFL
# [2] = molecular target: Vascular endothelial growth factor receptor 2 (Homo sapiens) (UniProt P35968); test: Inhibition of human N-terminal GST-tagged KDR cytoplasmic domain (790 to 1356 residues) expressed in baculovirus expression system using fluorescence labelled CSKtide as substrate at 50 times IC50 by electrophoretic mobility shift assay relative to control
# Sequence of Vascular endothelial growth factor receptor 2 (Homo sapiens) (P35968 whole entry, the tested form may be a part): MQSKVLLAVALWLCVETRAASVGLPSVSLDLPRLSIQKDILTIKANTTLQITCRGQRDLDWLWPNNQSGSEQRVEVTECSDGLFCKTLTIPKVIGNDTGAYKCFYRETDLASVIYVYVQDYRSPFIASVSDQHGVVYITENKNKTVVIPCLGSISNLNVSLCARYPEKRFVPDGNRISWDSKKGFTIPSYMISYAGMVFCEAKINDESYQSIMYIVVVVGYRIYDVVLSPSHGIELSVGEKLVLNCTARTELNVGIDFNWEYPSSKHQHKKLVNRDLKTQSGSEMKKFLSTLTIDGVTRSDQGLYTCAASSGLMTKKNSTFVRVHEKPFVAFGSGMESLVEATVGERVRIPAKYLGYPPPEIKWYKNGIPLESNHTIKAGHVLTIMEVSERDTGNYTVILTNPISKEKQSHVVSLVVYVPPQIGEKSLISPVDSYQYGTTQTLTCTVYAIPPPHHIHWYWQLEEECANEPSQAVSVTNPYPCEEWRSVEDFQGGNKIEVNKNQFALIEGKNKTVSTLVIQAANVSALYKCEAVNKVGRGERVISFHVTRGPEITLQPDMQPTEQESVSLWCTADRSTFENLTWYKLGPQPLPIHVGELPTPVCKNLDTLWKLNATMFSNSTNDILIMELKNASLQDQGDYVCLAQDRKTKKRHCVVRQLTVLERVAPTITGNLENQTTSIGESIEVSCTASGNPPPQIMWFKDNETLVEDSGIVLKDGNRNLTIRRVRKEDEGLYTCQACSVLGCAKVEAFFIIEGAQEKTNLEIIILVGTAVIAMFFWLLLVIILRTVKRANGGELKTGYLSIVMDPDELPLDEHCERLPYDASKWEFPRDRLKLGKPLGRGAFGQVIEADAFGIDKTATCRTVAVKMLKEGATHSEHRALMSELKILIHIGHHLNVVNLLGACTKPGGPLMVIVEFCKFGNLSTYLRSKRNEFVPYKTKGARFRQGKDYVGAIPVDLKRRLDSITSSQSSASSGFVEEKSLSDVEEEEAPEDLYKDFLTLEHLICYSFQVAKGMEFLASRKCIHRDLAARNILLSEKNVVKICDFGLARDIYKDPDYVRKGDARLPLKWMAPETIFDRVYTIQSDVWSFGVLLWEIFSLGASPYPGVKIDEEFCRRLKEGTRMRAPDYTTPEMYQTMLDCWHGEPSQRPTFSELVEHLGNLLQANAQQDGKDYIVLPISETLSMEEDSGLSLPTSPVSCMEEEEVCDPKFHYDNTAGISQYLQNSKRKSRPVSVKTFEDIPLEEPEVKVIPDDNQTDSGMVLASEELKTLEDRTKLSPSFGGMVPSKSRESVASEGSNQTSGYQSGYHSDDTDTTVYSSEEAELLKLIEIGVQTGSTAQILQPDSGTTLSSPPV
# [3] = molecular target: Epidermal growth factor receptor (Homo sapiens) (UniProt P00533); test: Inhibition of human N-terminal GST-tagged EGFR cytoplasmic domain (669 to 1210 residues) expressed in baculovirus expression system using fluorescence labelled srctide as substrate at 50 times IC50 by electrophoretic mobility shift assay relative to control
# Sequence of Epidermal growth factor receptor (Homo sapiens) (P00533 whole entry, the tested form may be a part): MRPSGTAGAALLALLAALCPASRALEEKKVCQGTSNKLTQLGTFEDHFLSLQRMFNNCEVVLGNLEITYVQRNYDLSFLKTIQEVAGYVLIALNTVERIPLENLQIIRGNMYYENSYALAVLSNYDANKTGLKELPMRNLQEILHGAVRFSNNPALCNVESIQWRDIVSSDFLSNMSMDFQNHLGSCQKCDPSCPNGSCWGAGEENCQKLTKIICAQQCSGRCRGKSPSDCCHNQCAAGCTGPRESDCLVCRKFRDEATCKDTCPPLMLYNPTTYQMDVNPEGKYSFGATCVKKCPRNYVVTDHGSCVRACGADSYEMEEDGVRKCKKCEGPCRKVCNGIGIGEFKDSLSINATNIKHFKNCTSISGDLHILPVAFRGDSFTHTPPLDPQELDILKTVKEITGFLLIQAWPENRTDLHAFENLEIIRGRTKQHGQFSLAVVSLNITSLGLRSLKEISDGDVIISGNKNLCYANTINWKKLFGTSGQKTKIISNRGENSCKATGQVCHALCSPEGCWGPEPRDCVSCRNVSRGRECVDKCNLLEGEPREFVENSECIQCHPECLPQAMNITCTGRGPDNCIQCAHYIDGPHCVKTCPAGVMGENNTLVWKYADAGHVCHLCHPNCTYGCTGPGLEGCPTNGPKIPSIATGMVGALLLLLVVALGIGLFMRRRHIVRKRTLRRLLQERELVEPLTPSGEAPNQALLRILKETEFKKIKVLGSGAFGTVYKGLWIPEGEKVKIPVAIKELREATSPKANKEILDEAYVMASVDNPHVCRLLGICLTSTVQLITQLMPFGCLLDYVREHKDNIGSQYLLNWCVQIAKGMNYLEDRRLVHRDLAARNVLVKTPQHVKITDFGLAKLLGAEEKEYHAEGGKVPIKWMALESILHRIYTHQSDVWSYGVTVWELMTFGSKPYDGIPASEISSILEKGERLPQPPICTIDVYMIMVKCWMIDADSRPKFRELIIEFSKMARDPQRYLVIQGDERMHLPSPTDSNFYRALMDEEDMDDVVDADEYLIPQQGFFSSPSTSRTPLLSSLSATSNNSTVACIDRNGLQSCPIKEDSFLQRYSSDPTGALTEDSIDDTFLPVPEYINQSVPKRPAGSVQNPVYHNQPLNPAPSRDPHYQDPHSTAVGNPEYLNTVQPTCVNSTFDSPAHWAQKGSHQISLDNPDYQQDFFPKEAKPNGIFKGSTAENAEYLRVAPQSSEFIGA
# [4] = molecular target: Receptor-type tyrosine-protein kinase FLT3 (Homo sapiens) (UniProt P36888); test: Inhibition of human N-terminal GST-tagged FLT3 cytoplasmic domain (564 to 993 residues) expressed in baculovirus expression system using fluorescence labelled srctide as substrate at 50 times IC50 by electrophoretic mobility shift assay relative to control
# Sequence of Receptor-type tyrosine-protein kinase FLT3 (Homo sapiens) (P36888 whole entry, the tested form may be a part): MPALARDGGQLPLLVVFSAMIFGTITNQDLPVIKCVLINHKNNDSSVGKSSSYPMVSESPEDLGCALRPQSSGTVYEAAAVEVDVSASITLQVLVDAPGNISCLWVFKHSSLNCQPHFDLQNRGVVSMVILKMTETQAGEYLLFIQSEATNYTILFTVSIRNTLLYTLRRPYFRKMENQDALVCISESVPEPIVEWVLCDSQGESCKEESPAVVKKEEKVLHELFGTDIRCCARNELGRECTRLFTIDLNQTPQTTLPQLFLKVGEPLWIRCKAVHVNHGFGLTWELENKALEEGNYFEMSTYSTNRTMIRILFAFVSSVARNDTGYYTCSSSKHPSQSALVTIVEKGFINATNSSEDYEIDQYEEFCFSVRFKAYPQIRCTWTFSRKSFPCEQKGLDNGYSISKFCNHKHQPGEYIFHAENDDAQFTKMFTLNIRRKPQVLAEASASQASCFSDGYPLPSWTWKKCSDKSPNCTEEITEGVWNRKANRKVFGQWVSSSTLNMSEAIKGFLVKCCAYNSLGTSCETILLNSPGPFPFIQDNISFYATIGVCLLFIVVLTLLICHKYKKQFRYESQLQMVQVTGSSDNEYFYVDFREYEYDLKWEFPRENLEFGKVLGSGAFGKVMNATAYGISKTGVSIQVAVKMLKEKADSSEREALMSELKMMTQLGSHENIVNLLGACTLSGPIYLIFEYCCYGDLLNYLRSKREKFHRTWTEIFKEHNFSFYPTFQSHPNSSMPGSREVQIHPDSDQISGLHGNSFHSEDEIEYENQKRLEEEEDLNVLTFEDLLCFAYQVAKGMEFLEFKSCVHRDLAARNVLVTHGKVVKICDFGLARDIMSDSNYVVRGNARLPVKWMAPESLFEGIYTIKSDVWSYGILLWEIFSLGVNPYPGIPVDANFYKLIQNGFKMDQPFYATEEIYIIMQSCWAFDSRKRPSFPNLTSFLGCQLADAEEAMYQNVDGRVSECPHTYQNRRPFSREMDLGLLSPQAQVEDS
# MV4-11 [5] = test: Growth inhibition of human MV4-11 cells harboring FLT3-ITD after 48 hrs by CCK8 assay; type: functional, cell-based; settings: MV4-11, 48 h
# [6] = Growth inhibition of human WI38 cells after 48 hrs by CCK8 assay; type: cell-based; settings: WI-38, 48 h
# Homo sapiens [7] = species on record: Homo sapiens; test: Selectivity ratio of IC50 for human N-terminal GST-tagged TRKA cytoplasmic domain (436 to 790 residues) expressed in baculovirus expression system to IC50 for human N-terminal GST-tagged FLT3 cytoplasmic domain (564 to 993 residues) expressed in baculovirus expression system
# MV4-11 [8] = test: Induction of apoptosis in human MV4-11 cells at 0.17 to 17 uM after 48 hrs by annexin V/propidium iodide staining based flow cytometry; type: functional, cell-based
# [9] = Aqueous solubility in pH 7.4 PBS buffer at 200 uM after 24 hrs by UV-visible HPLC based shake flask method; type: physicochemical; settings: PBS buffer pH 7.4, pH 7.4
# Homo sapiens [10] = species on record: Homo sapiens; test: Selectivity ratio of IC50 for human N-terminal GST-tagged HGK catalytic domain (1 to 328 residues) expressed in baculovirus expression system to IC50 for human N-terminal GST-tagged FLT3 cytoplasmic domain (564 to 993 residues) expressed in baculovirus expression system
# CYP2C19 = CYP2C19 (Homo sapiens, UniProt P33261); test: Inhibition of human CYP2C19 at 10 uM relative to control; type: ADME
# [11] = Metabolic stability in human liver microsomes assessed as parent compound remaining at 1 uM after 1 hr; type: ADME; settings: read-out: Stability
# [12] = molecular target: High affinity nerve growth factor receptor (Homo sapiens, UniProt P04629); test: Inhibition of human N-terminal GST-tagged TRKA cytoplasmic domain (436 to 790 residues) expressed in baculovirus expression system using fluorescence labelled CSKtide as substrate by electrophoretic mobility shift assay
# Sequence of High affinity nerve growth factor receptor (P04629 whole entry, the tested form may be a part): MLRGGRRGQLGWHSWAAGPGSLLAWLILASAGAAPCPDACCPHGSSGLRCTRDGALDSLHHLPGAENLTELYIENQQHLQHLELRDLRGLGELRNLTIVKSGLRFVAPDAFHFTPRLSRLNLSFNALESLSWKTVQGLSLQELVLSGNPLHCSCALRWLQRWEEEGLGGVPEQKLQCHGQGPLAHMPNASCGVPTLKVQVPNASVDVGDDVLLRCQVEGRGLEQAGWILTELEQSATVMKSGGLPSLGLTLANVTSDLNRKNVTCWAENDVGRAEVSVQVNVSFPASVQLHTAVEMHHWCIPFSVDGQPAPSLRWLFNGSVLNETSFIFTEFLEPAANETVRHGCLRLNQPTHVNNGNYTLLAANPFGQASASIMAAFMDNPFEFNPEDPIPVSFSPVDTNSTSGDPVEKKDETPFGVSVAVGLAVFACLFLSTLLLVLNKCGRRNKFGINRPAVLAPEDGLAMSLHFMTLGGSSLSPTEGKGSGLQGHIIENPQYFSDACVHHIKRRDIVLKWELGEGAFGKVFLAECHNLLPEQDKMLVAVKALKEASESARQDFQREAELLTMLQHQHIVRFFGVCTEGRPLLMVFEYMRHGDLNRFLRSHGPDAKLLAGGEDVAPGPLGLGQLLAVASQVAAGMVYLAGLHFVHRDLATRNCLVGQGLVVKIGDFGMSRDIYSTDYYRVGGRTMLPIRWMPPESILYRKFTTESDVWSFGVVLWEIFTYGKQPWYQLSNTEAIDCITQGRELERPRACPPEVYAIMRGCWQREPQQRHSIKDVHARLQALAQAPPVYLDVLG
# CYP2C9 = CYP2C9 (Homo sapiens, UniProt P11712); test: Inhibition of human CYP2C9 at 10 uM relative to control; type: ADME
# [13] = Permeability from apical to basolateral side in human Caco2 cells at 10 uM after 60 mins by HPLC-MS/MS analysis; type: ADME, cell-based; settings: Caco-2, read-out: permeability
# CYP3A4 = CYP3A4 (Homo sapiens, UniProt P08684); test: Inhibition of human recombinant CYP3A4 at 10 uM by fluorimetry relative to control; type: ADME
# [14] = molecular target: Receptor-type tyrosine-protein kinase FLT3 (Homo sapiens) (UniProt P36888); test: Inhibition of FLT3 autophosphorylation at Tyr-596 in human MV4-11 cells after 1.5 hrs by Western blot analysis; type: cell-based
# [15] = molecular target: Mitogen-activated protein kinase kinase kinase kinase 4 (Homo sapiens, UniProt O95819); test: Inhibition of human N-terminal GST-tagged HGK catalytic domain (1 to 328 residues) expressed in baculovirus expression system using fluorescence labelled moesin-derived peptide substrate by electrophoretic mobility shift assay
# CYP1A2 = CYP1A2 (Homo sapiens, UniProt P05177); test: Inhibition of human recombinant CYP1A2 using CEC as substrate at 10 uM after 30 mins by fluorimetry relative to control; type: ADME; settings: recombinant CYP1A2, probe CEC
# Sequence of CYP1A2 (P05177 whole entry): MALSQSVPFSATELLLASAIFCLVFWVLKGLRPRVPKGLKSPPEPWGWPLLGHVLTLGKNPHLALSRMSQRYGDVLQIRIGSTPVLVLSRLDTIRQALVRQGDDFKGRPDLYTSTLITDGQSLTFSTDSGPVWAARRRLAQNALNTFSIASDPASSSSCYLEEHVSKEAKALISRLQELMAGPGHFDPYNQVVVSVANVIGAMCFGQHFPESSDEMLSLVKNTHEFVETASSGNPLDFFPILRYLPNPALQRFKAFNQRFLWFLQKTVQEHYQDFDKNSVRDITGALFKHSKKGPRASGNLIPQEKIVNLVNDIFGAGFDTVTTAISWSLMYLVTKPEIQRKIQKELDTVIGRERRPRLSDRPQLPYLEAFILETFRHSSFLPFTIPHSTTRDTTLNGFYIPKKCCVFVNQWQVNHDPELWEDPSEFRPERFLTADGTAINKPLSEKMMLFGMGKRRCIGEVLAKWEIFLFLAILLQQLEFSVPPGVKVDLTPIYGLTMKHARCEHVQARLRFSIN
# CYP2D6 = CYP2D6 (Homo sapiens, UniProt P10635); test: Inhibition of human CYP2D6 at 10 uM relative to control; type: ADME
Structure (SMILES),inhibition [1],inhibition [2],inhibition [3],inhibition [4],IC50 (MV4-11 [5]),IC50 [6],Ratio IC50 (Homo sapiens [7]),Activity (MV4-11 [8]),"solubility thermodynamic at 24 h, 200 µM [9]",Ratio IC50 (Homo sapiens [10]),inhibition at 10 µM (CYP2C19),"remaining at 1 h, 1 µM [11]",IC50 [12],inhibition at 10 µM (CYP2C9),"Papp A→B at 1 h, 10 µM [13]",inhibition at 10 µM (CYP3A4),inhibition [14],IC50 [15],"inhibition at 0.5 h, 10 µM (CYP1A2)",inhibition at 10 µM (CYP2D6)
O=C(Nc1ccc(C(=O)N2CCN(c3ccccc3)CC2)cc1)c1n[nH]c2ccccc12,26.3%,34.2%,0.1%,99.7%,–,–,–,–,–,–,–,–,–,–,–,–,–,–,–,–
O=C(Nc1ccccc1)c1n[nH]c2ccccc12,42.4%,44.2%,9.1%,96.7%,7700 nM,> 10000 nM,–,–,–,–,–,–,–,–,–,–,–,–,–,–
O=C(Nc1ccc(CN2CCN(c3ccccc3)CC2)cc1)c1n[nH]c2ccccc12,11.9%,15.8%,1.7%,100%,164 nM,> 10000 nM,15,Active,3 µM,45,57%,50%,137 nM,36%,4 ×10⁻⁶ cm/s,48%,Dose-dependent effect,410 nM,36%,62%
